According to US12692262B2, “Substituted ureas as orexin receptor agonists” (Merck Sharp & Dohme LLC, priority 2020, dated 2026):

Target: T1, human OX2R (Homo sapiens, UniProt O43614)
T1 construct: expressed in transfected cells; host or cells: CHO (Chinese hamster ovary) cells grown under G418 selection
T1 sequence (O43614 1-444): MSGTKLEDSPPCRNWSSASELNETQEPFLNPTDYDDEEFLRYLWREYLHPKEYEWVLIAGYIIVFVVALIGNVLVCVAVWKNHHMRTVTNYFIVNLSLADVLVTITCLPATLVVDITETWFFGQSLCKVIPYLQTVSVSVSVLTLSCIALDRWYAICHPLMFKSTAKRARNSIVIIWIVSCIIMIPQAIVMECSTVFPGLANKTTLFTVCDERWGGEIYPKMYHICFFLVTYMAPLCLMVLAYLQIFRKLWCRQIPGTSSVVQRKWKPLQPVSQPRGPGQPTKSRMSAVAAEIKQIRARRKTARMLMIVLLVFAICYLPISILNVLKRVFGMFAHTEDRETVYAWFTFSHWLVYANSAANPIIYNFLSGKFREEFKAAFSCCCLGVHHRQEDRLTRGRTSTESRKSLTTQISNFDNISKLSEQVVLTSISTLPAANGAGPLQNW
Assay: IPOne (IP-1 accumulation) assay in CHO cells expressing human OX2R
Assay type: cell-based
Settings: for EC50: CHO cells expressing human OX2R, IP-One assay, 2 h incubation, four parameter logistic fit, read-out: OX2R Potency, EC50; for % of maximum agonist effect (relative to Orexin A): percent effect vs mean max effect of a reference compound at 1 uM (100% activity vs Orexin A), human OX2R
Excerpt: The utility of the compounds in accordance with the present invention as orexin receptor OX1R and/or OX2R agonists may be readily determined without undue experimentation by methodology well known in the art. Both the OX1R and/or OX2R G-coupled protein receptors (GPCRs) couple through the Gαq signaling pathway, which ultimately promotes calcium mobilization via inositol triphosphate (IP3) production. […] The utility of the compounds in accordance with the present invention as orexin receptor OX1R and/or OX2R agonists may be determined utilizing this assay.
In a typical experiment, the OX1 and OX2 receptor agonist activity is determined in accordance with the following general experimental method. Chinese hamster ovary (CHO) cells expressing human OX1R and/or the human OX2R were grown in Iscove's modified DMEM containing glutaMAX™, 1% G418, 100 U/mL penicillin, 100 μg/mL streptomycin and 10% heat-inactivated qualified fetal bovine serum (FBS). […] During this incubation, IP-one detection reagents were prepared (38:1:1 lysis buffer:D2:AB-cryptate reagents).
For each compound, data were fit to a four parameter logistic fit (ActivityBase software) and the EC50 was reported as the inflection point of the resulting curve. […] The intrinsic orexin receptor agonist activity of a compound which may be used in the present invention may be determined by these assays.

| SMILES | EC50 | % of maximum agonist effect (relative to Orexin A) |
| --- | --- | --- |
| CCN(C(=O)N[C@@H](CCC(F)(F)F)C(F)(F)F)C(c1cnc(OC)c(-c2cn3ccnc3c(OC)n2)c1)C(F)(F)F (stereo partly drawn) [Example 2-50, 1-ethyl-3-((S)-1,1,1,5,5,5-hexafluoropentan-2-yl)-1-(2,2,2-trifluoro-1-(6-methoxy-5-(8-methoxyimidazo[1,2-a]pyrazin-6-yl)pyridin-3-yl)ethyl)urea] | 1.4 nM | 100.5% |
| CC[C@H](CCC(F)(F)F)NC(=O)N(CC)[C@H](C)c1ccc(OC)c(-c2cnc3[nH]ccc3c2)c1 [Example 8-5, 1-ethyl-1-((R)-1-(4-methoxy-3-(1H-pyrrolo[2,3-b]pyridin-5-yl)phenyl)ethyl)-3-((R)-6,6,6-trifluorohexan-3-yl)urea] | 47.8 nM | 96.1% |
| CCN(C(=O)N[C@@H](CCC(F)(F)F)C(F)(F)F)[C@H](C)c1cc(-c2cc3ccnn3c(OC)n2)c(OC)cn1 [Example 2-51, 1-ethyl-3-((S)-1,1,1,5,5,5-hexafluoropentan-2-yl)-1-((R)-1-(5-methoxy-4-(7-methoxypyrazolo[1,5-c]pyrimidin-5-yl)pyridin-2-yl)ethyl)urea] | 1 nM | 98.7% |
| CCN(C(=O)N[C@@H](CCC(F)(F)F)C(F)(F)F)[C@@H](c1cc(-c2cc(OC)c3ncn(C)c3c2)c(OC)cn1)C(F)(F)F [Example 9-7, 1-ethyl-3-((S)-1,1,1,5,5,5-hexafluoropentan-2-yl)-1-((S)-2,2,2-trifluoro-1-(5-methoxy-4-(4-methoxy-1-methyl-1H-benzo[d]imidazol-6-yl)pyridin-2-yl)ethyl)urea] | 29.8 nM | 100.4% |
| CC[C@H](NC(=O)N(CC)C(c1cc(-c2cn3ccnc3c(OC)n2)c(OC)cn1)C(F)(F)F)C(F)(F)F (stereo partly drawn) [Example 2-8, 1-ethyl-1-(2,2,2-trifluoro-1-(5-methoxy-4-(8-methoxyimidazo[1,2-a]pyrazin-6-yl)pyridin-2-yl)ethyl)-3-((S)-1,1,1-trifluorobutan-2-yl)urea] | 13.3 nM | 100.0% |
| CC[C@H](CCC(F)(F)F)NC(=O)N(CC)[C@H](C)c1cccc(-c2cc3c(c(OC)c2)NCC3)c1 [Example 25, 1-ethyl-1-((R)-1-(3-(7-methoxyindolin-5-yl)phenyl)ethyl)-3-((R)-6,6,6-trifluorohexan-3-yl)urea] | 619 nM | 98.5% |
| CCN(C(=O)N[C@@H](CCC(F)(F)F)C(F)(F)F)C(c1cc(-c2cn3ccnc3c(OC)n2)c2occc2n1)C(F)(F)F (stereo partly drawn) [Example 2-13, 1-ethyl-3-((S)-1,1,1,5,5,5-hexafluoropentan-2-yl)-1-(2,2,2-trifluoro-1-(7-(8-methoxyimidazo[1,2-a]pyrazin-6-yl)furo[3,2-b]pyridin-5-yl)ethyl)urea] | 2.1 nM | 99.9% |
| CCN(C(=O)N[C@@H](CCC(F)(F)F)C(F)(F)F)[C@@H](c1cc(-c2cc(OC)n3nccc3n2)c(OC)cn1)C(F)(F)F [Example 9-8, 1-ethyl-3-((S)-1,1,1,5,5,5-hexafluoropentan-2-yl)-1-((S)-2,2,2-trifluoro-1-(5-methoxy-4-(7-methoxypyrazolo[1,5-a]pyrimidin-5-yl)pyridin-2-yl)ethyl)urea] | 44 nM | 99.5% |
| CCN(C(=O)NC(COC(=O)N(C)C)C(F)(F)F)[C@H](C)c1cccc(-c2cn3ccnc3c(OC)n2)c1 (single isomer, unassigned) [Example 23] | 125 nM | 95.3% |
| CCN(C(=O)NC(C)C(C)(F)F)[C@@H](c1cc(-c2cn3ccnc3c(OC)n2)c(OC)cn1)C(F)(F)F (stereo partly drawn) [Example 2-40, 3-(3,3-difluorobutan-2-yl)-1-ethyl-1-((S)-2,2,2-trifluoro-1-(5-methoxy-4-(8-methoxyimidazo[1,2-a]pyrazin-6-yl)pyridin-2-yl)ethyl)urea] | 15.8 nM | 99.3% |
| CCN(C(=O)N[C@@H](CCC(F)(F)F)C(F)(F)F)[C@H](C)c1cccc(-c2cc(OC)c3nc(Cl)cn3c2)c1 [Example 8-10, 1-((R)-1-(3-(2-chloro-8-methoxyimidazo[1,2-a]pyridin-6-yl)phenyl)ethyl)-1-ethyl-3-((S)-1,1,1,5,5,5-hexafluoropentan-2-yl)urea] | 1.5 nM | 99.6% |
| CCC(CCC(F)(F)F)NC(=O)N(CC)[C@H](C)c1cccc(-c2cn3ccnc3cc2COC)c1 (stereo partly drawn) [Example 7-6, 1-ethyl-1-((R)-1-(3-(7-(methoxymethyl)imidazo[1,2-a]pyridin-6-yl)phenyl)ethyl)-3-(6,6,6-trifluorohexan-3-yl)urea] | 1410 nM | 100.8% |
| CCN(C(=O)NC(CC(C)=O)C(F)(F)F)[C@@H](c1cc(-c2cn3ccnc3c(OC)n2)c(OC)cn1)C(F)(F)F (stereo partly drawn) [Example 2-34, 1-ethyl-1-((S)-2,2,2-trifluoro-1-(5-methoxy-4-(8-methoxyimidazo[1,2-a]pyrazin-6-yl)pyridin-2-yl)ethyl)-3-(1,1,1-trifluoro-4-oxopentan-2-yl)urea] | 2.7 nM | 101.1% |
| CCN(C(=O)N[C@@H](CCC(F)F)C(F)(F)F)[C@@H](c1cc(-c2cn3cc(C)nc3c(OC)n2)c(OC)cn1)C(F)(F)F [Example 3-3, 1-ethyl-3-((S)-1,1,1,5,5-pentafluoropentan-2-yl)-1-((S)-2,2,2-trifluoro-1-(5-methoxy-4-(8-methoxy-2-methylimidazo[1,2-a]pyrazin-6-yl)pyridin-2-yl)ethyl)urea] | 3.6 nM | 101.6% |
| CCN(C(=O)N[C@@H](CCC(F)(F)F)C(F)(F)F)C(c1cnc(SC)c(-c2cc(OC)n3nccc3c2)c1)C(F)(F)F (stereo partly drawn) [Example 2-15, 1-ethyl-3-((S)-1,1,1,5,5,5-hexafluoropentan-2-yl)-1-(2,2,2-trifluoro-1-(5-(7-methoxypyrazolo[1,5-a]pyridin-5-yl)-6-(methylthio)pyridin-3-yl)ethyl)urea] | 24 nM | 98.4% |
| CCN(C(=O)NC(C)C1CCCC(F)(F)C1)[C@H](C)c1cccc(-c2cn3ccnc3c(OC)n2)c1 (stereo partly drawn) [Example 1-9, 3-(1-(3,3-difluorocyclohexyl)ethyl)-1-ethyl-1-((R)-1-(3-(8-methoxyimidazo[1,2-a]pyrazin-6-yl)phenyl)ethyl)urea] | 0.6 nM | 99.8% |
| CCN(C(=O)N[C@@H](CCC(F)(F)F)C(F)(F)F)C(c1ncc(OC)c(-c2cn3ccnc3c(OC)n2)n1)C(F)(F)F (stereo partly drawn) [Example 10-4, 1-ethyl-3-((S)-1,1,1,5,5,5-hexafluoropentan-2-yl)-1-(2,2,2-trifluoro-1-(5-methoxy-4-(8-methoxyimidazo[1,2-a]pyrazin-6-yl)pyrimidin-2-yl)ethyl)urea] | 1.3 nM | 100.7% |
| CCN(C(=O)N[C@@H](CCC(F)(F)F)C(F)(F)F)C(c1cc(-c2cn3cc(C)nc3c(OC)n2)c(OC)cn1)C1CC1 (stereo partly drawn) [Example 2-16, 1-(cyclopropyl(5-methoxy-4-(8-methoxy-2-methylimidazo[1,2-a]pyrazin-6-yl)pyridin-2-yl)methyl)-1-ethyl-3-((S)-1,1,1,5,5,5-hexafluoropentan-2-yl)urea] | 54.5 nM | 101.1% |
| CCN(C(=O)N[C@@H]1C[C@@]1(C)C(F)(F)F)[C@@H](c1cc(-c2cn3ccnc3c(OC)n2)c(OC)cn1)C(F)(F)F [Example 2-27, 1-ethyl-3-((1R,2R)-2-methyl-2-(trifluoromethyl)-cyclopropyl)-1-((S)-2,2,2-trifluoro-1-(5-methoxy-4-(8-methoxyimidazo[1,2-a]pyrazin-6-yl)pyridin-2-yl)ethyl)urea] | 9.4 nM | 101.1% |
| CCN(C(=O)N[C@@H](CC(OC)C(F)(F)F)C(F)(F)F)[C@@H](c1cc(-c2cn3cc(C)nc3c(OC)n2)c(OC)cn1)C(F)(F)F (stereo partly drawn) [Example 2-44, 1-ethyl-3-((2S)-1,1,1,5,5,5-hexafluoro-4-methoxypentan-2-yl)-1-((S)-2,2,2-trifluoro-1-(5-methoxy-4-(8-methoxy-2-methylimidazo[1,2-a]pyrazin-6-yl)pyridin-2-yl)ethyl)urea] | 4.8 nM | 100.6% |
